Measurements taken from publication PMC4195615, “Inhibition Effect of a Custom Peptide on Lung Tumors” (PLoS ONE, 2014).

Legend:
3T3/3T6 tissue cells = test: In vitro toxicity to other normal cells; type: cell-based; settings: data not shown
HFL1 cells = test: In vitro toxicity to other normal cells; type: cell-based; settings: data not shown
MRC-5 normal cells = test: Cell plate growth study, photographed; type: cell-based, human; settings: 50 µM CB1a added after 4 days, photographed after 24 hours, 2×10^3 cells at start
Experimental: (§1) NCI-H460 cancer cells were grown on two cell plates (2×10^3 cells at start in each) – after 4 days, CB1a (50 µM) was added to one and not the other. […] This experiment was repeated but with normal cells. MRC-5 normal cells were grown on two cell plates (2×10^3 cells at start in each) – after 4 days, CB1a (50 µM) was added to one and not the other.
(§2) Photos A and B show without and with CB1a (50 µM), on NCI-H460 cancer cells, respectively. Photos C and D show without and with CB1a (50 µM), on MRC-5 normal cells, respectively. Initial cell concentrations on plates were 2×10^3 cells for all; photos were taken after 5 days incubation; where CB1a was applied it was done so at the end of day 4. Comparing A and B: one can note without CB1a there is significant cellular growth, as to be expected from a cancer cell line; with CB1a there is not, presumably because of a CB1a kill action against cancer cells.

NCI-H460 cancer cells [1] = test: Cell plate growth study, photographed; type: cell-based, human; settings: 50 µM CB1a added after 4 days, photographed after 24 hours, 2×10^3 cells at start
Experimental: as §1, §2

[2] = system: human NCI-H460 cancer cells xenograft; test: Nude mouse xenograft, post-treatment-only, comparison with docetaxel; settings: for Mean tumor volume at week 4: 0.012 mmol/kg i.v. (CB1a 50 mg/kg, docetaxel 10 mg/kg), saline 5,400 mm^3; for Mean tumor volume at week 4 / Mean body weight at week 4 / Mean tumor weight as % of that in saline treated mice: 5 injections per week for 4 weeks; for Body weight course: compared with saline treated mice; for Mean body weight at week 5: data not shown; for Mean tumor weight as % of that in saline treated mice: week 4, sacrificed
[3] = Pharmacokinetics of CB1a in rat blood by competitive ELISA; type: in vivo; settings: Sprague-Dawley rats, 50 mg/kg i.v., competitive ELISA with 5C5H5 antibody
Description: Using this standard curve, an unknown concentration of CB1a in a test sample can then be found by finding its OD450nm (A/A0) value in an ELISA experiment. […] For our definitive standard curve, we used the one with a dilution rate of 1∶2000 and utilized this dilution rate when assaying test blood samples. We used a primary antibody dilution rate of 1∶5000.
Six […] male Sprague-Dawley rats (230–260 g; sourced from BioLASCO, Yilan, Taiwan) were housed (3 per cage) in a specific pathogen free animal room. The rats were intravenously injected with CB1a peptide (50 mg/kg) and blood samples were then collected from the tail vein of the rats at the following time points: 5, 20, 25, 38.5, 50, 60 and 240 minutes after the CB1a injection (6 samples taken at each of these time points). The blood samples were transferred to heparinized microcentrifuge tubes and centrifuged at 4,000 g for 5 minutes; then frozen for storage at −80°C.
The blood samples were analyzed via a competitive ELISA technique, rather than the more direct ELISA technique described earlier. Blood samples were diluted 100 fold and then mixed with a known concentration of CB1a antibody (2mg/ml in PBST buffer, including 1% BSA). […] The CB1a concentration recorded on the plate is added to the known CB1a concentration that is washed off, bound to the CB1a antibodies, to get the total CB1a concentration. […]

NCI-H460 cancer cells [4] = test: Tumor-like spheroid (MCTS) formation, modified hanging drop method; type: cell-based, human; settings: NCI-H460, 5×10^2 cells
Experimental: We used non-adhesive, bacterial culture-grade polystyrene Petri dishes. Approximately 5×10^2 NCI-H460 cancer cells (3×10^4 cells/ml) were deposited as a drop on the inner face of lids to 90 mm Petri dishes. These lids were then placed on their dishes, which were filled with 10 ml phosphate-buffered saline (PBS). A monolayer of NCI-H460 lung cancer cells was then de-attached by 0.25% Trypsin-EDTA. These dishes were then incubated at 37 C in a 5% CO2 incubator. This modified “hanging drop” method causes the cancer cells to grow in a tumor-like aggregation; which is called a MCTS. After 3 days incubation, CB1a was applied in different concentrations (5, 15, 30, 45 and 60 µM) to different plates and a photo was then taken of each plate after 36 hours. This methodology investigated the post-treatment of CB1a, after tumor formation. The pre-treatment effect of CB1a, before tumor formation, was also studied. CB1a was applied in different concentrations (5, 15, 30, 45 and 60 µM) to different plates and left for 30 minutes before the 0.25% Trypsin-EDTA de-attachment step. After this step, the plates were incubated for 3 days and 36 hours before being photographed.

[5] = system: human NCI-H460 cancer cells xenograft; test: Nude mouse xenograft, pre-and-post-treatment of CB1a; type: in vivo; settings: 50 mg/kg s.c.
Experimental: Afterwards, the animal test experiments were performed.
Six mice were pre-treated with CB1a (50 mg/kg) 3 times in one week prior to them being subcutaneously xenografted with human tumorigenic NCI-H460 lung cancer cells (0.2 ml; 1×10^6 cells/ml). A control was studied in which saline was used instead of CB1a (6 mice in this control group). The dose of CB1a/saline was continued after the xenograft: 5 times per week for 5 weeks. The CB1a/saline injection point was in the dorsolateral neck area and the xenograft cancer cells were transplanted into the abdominal flank area of the mouse (Figure 5A). The distance between these two points is far (∼4 cm) as compared to the length of the mouse (∼6 cm). This distance tested whether CB1a could effectively travel in the blood stream without being destroyed. […] 36 days after the human lung cancer cells were xenografted on to the mouse – the mean volume of the tumor in the CB1a treated mice was just 19.3% of the tumor in the saline treated mice (Figure 5C); the mean weight of the tumor in CB1a treated mice was just 9% of the tumor in saline treated mice (Figure 5D). In other words, the tumor was ∼80% smaller and ∼90% lighter in CB1a treated mice.

[6] = system: normal lung cell versus cancerous lung cell; settings: general statement, no reference given; cited from earlier work
Description: IC50 is the chemical concentration that produces 50% cell survival. The selectivity index of a lung cancer drug is a measure of how specific its killing action is to cancer cells. It is the ratio of its IC50 for a normal lung cell to its IC50 for a cancerous lung cell.

[7] = 100 mg/m^2 in a three-week cycle; cited from earlier work
Experimental: Drugs presently in use to combat lung cancers have severe side effects because their toxicity is not sufficiently selective to cancer cells. For example, docetaxel administered at a dose of 100 mg/m^2 in a three-week cycle causes haematological toxicity (86% patients having grade 3 or 4 neutropenia).

[8] = tumor-bearing nude mice, 0.012 mmol/kg i.v., n = 6
[9] = tumor-bearing nude mice, 0.012 mmol/kg i.v., 5 injections per week, n = 6
[10] = tumor-bearing nude mice, 0.012 mmol/kg i.v.

With “H-KWKVFKKIEKKWKVFKKIEKAGPKWKVFKKIEK-OH [CB1a]” the “Killing of normal cells at concentrations that kill lung cancer cells” value (3T3/3T6 tissue cells) was “do not kill”, the “Killing of normal cells at concentrations that kill lung cancer cells” value (HFL1 cells) was “do not kill” and the “Cell number on plate versus plate without CB1a” value (MRC-5 normal cells) was “does not kill these normal cells”. The “Cell number on plate versus plate without CB1a” value (NCI-H460 cancer cells [1]) was “significantly less cells”, the “Mean tumor volume at week 4” value ([2]; n = 6) was 3,100 mm^3 and the “Mean body weight at week 4” value [2, 8] was 30.5 g. The “Mean body weight at the start” value [2, 9] was 25.5 g, the Body weight course [2, 10] was “gained weight at the same trajectory as saline treated mice” and the “Mean body weight at week 5” value [2, 10] was 32 g. For the same compound, the “Mean tumor weight as % of that in saline treated mice” value (from here on “Mean tumor weight as % of that”) ([2]; 0.012 mmol/kg i.v., n = 6) was 59%, the “Time for which a CB1a concentration that can kill cancer cells (≥25 µM or ≥105 µg/ml) endures in rat blood” value [3] was “around 25 minutes” and the half-life ([3]; male, rat, iv, tail vein blood 5-240 minutes, n = 6) was 16.4 min. The “Spheroid formation, post-treatment with CB1a” value (NCI-H460 cancer cells [4]; CB1a 5, 15, 30, 45, 60 µM applied after 3 days incubation, photo after 36 hours) was “tumor spheroids can still be observed”, the “Spheroid formation, pre-treatment with CB1a” value (NCI-H460 cancer cells [4]; CB1a 5-60 µM applied 30 minutes before de-attachment, higher CB1a concentrations) was “no spheroids form” and the “Mean tumor volume as % of that in saline treated mice” value ([5]; 36 days after xenograft, pre-and-post-treatment, n = 6) was 19.3%. The “Mean tumor weight as % of that” value ([5]; day 36, sacrificed, pre-and-post-treatment, n = 6) was 9%, the “Tumor lighter than in saline treated mice” value ([5]; day 36, pre-and-post-treatment) was ~90% and the “Tumor smaller than in saline treated mice” value ([5]; day 36, pre-and-post-treatment) was ~80%. The “Deaths during the experiment” value ([5]; nude mice, 3 times in week before xenograft then 5 times per week for 5 weeks, n = 6) was “None of the mice died” and the “Mean body weight compared with saline treated mice” value ([5]; nude mice, pre-and-post-treatment, n = 6) was “comparable to that of saline treated mice”.
For `CC(=O)O[C@@]12CO[C@@H]1C[C@H](O)[C@@]1(C)C(=O)[C@H](O)C3=C(C)[C@@H](OC(=O)[C@H](O)[C@@H](NC(=O)OC(C)(C)C)c4ccccc4)C[C@@](O)([C@@H](OC(=O)c4ccccc4)[C@H]21)C3(C)C` [docetaxel, reference compound], the “Selectivity index (SI) of drugs presently on the market” value [6] is given as “less than one”, the “Mean tumor volume at week 4” value ([2]; n = 6) is given as 3,200 mm^3 and the “Mean body weight at week 4” value [2, 8] is given as 25 g. The “Mean body weight at week 2 (maximum)” value [2, 9] was 27 g, the Body weight course [2, 10] was “weight loss” and the “Mean body weight at week 5” value [2, 10] was 21 g. For the same compound, the “Mean tumor weight as % of that” value ([2]; 0.012 mmol/kg i.v., n = 6) was 73% and the “Patients having grade 3 or 4 neutropenia (haematological toxicity)” value [7] was 86%.
In the case of `COc1cccc2c1C(=O)c1c(O)c3c(c(O)c1C2=O)C[C@@](O)(C(=O)CO)C[C@@H]3O[C@H]1C[C@H](N)[C@H](O)[C@H](C)O1` [doxorubicin], the “Selectivity index (SI) of drugs presently on the market” value [6] is listed as “less than one”.
